Experimental data from ChEMBL document CHEMBL5543086, “Discovery of novel NSAID hybrids as cPLA2/COX-2 dual inhibitors alleviating rheumatoid arthritis via inhibiting p38 MAPK pathway” (Eur J Med Chem, 2024).
pIC50: −log10 of the molar value. Calls of active or inactive are those of the source. The calls are words filed in the database; no cut-off is given here.

Experiments:
RAW264.7 [1] = experiment: Cytotoxicity against LPS-induced mouse RAW264.7 cells assessed as reduction in cell viability at 30 uM pretreated for 1 hr followed by LPS addition and measured after 24 hrs by MTT assay; format: toxicity, cell-based; details: raw264.7, 25 h
RAW264.7 [2] = experiment: Antiinflammatory activity in LPS-induced mouse RAW264.7 cells assessed as inhibition of NO production pretreated for 1 hr followed by LPS stimulation and measured after 24 hrs by griess reagent based assay; format: functional, cell-based
RAW264.7 [3] = experiment: Antiinflammatory activity in LPS-induced mouse RAW264.7 cells assessed as inhibition of NO production at 10 uM pretreated for 1 hr followed by LPS stimulation and measured over 48 hrs by griess reagent based assay; format: functional, cell-based; details: time > 49.0 hrs
RAW264.7 [4] = experiment: Antiinflammatory activity in LPS-induced mouse RAW264.7 cells assessed as inhibition of PGE2 production at 10 uM pretreated for 1 hr followed by LPS stimulation and measured after 24 to 48 hrs by ELISA; format: functional, cell-based; details: time 25-49 hrs
[5] = molecular target: T1, Prostaglandin G/H synthase 2 (Mus musculus) (UniProt Q05769); experiment: Binding affinity to COX-2 in LPS-induced mouse RAW264.7 cells assessed as thermal stability at 30 uM pretreated with LPS for 24 hrs followed by compound addition and measured after 2 hrs by CETSA; format: cell-based
T1 sequence (whole entry): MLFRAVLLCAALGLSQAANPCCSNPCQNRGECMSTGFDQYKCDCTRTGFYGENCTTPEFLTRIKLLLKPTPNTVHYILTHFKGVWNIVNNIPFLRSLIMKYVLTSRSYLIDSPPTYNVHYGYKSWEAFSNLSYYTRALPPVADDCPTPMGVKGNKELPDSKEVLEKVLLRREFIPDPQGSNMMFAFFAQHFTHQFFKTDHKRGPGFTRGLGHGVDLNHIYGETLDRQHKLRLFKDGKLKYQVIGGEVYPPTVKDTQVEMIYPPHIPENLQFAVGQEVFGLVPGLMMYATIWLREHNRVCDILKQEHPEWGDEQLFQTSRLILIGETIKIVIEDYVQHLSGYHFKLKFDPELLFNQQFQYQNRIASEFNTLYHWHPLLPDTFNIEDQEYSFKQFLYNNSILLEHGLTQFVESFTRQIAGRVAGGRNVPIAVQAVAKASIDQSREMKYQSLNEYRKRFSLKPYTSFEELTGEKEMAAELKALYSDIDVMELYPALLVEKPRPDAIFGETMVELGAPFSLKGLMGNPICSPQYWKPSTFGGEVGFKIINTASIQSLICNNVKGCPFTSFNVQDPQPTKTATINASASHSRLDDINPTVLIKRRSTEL

RAW264.7 [6] = experiment: Antiinflammatory activity against LPS-induced mouse RAW264.7 cells assessed as inhibition of COX-2 protein expression pretreated for 1 hr followed by LPS stimulation and measured after 24 hrs by Western blot analysis; format: functional, cell-based; details: dose 2.5-10 µM, time 25.0 hrs
[7] = Toxicity in Lewis rat model of Freund's complete adjuvant induced arthritis assessed as effect on growth by measuring reduction in body weight at 20 mg/kg, po administered every 24 to 48 hrs for 28 days post immunization starting from day 8 post immunization; format: organism-based; details: in vivo, 504 h, time 21 day
Rattus norvegicus [8] = experiment: Antiarthritic activity in Freund's complete adjuvant induced Lewis rat model of arthritis assessed as reduction in joint deformities at 20 mg/kg, po administered every 24 to 48 hrs for 28 days post immunization starting from day 8 post immunization; format: functional, organism-based; details: time 21.0 day
Mus musculus = species on record: Mus musculus; experiment: Analgesic activity in mouse model assessed as reduction in acetic acid induced inflammatory pain; format: functional, organism-based
Rattus norvegicus [9] = experiment: Antiarthritic activity in Freund's complete adjuvant induced Lewis rat model of arthritis assessed as modulation of immune system responses by measuring reduction in spleen weight at 20 mg/kg, po administered every 24 to 48 hrs for 28 days post immunization starting from day 8 post immunization; format: functional, organism-based; details: time 21.0 day
Rattus norvegicus [10] = experiment: Antiarthritic activity in Freund's complete adjuvant induced Lewis rat model of arthritis assessed as reduction in PGE2 level in serum at 20 mg/kg, po administered every 24 to 48 hrs for 28 days post immunization starting from day 8 post immunization by ELISA; format: functional, organism-based; details: time 21.0 day
Rattus norvegicus [11] = experiment: Antiarthritic activity in Freund's complete adjuvant induced Lewis rat model of arthritis assessed as reduction in TNFalpha level in serum at 20 mg/kg, po administered every 24 to 48 hrs for 28 days post immunization starting from day 8 post immunization by ELISA; format: functional, organism-based; details: time 21.0 day
Rattus norvegicus [12] = experiment: Antiarthritic activity in Freund's complete adjuvant induced Lewis rat model of arthritis assessed as reduction in IL-6 level in serum at 20 mg/kg, po administered every 24 to 48 hrs for 28 days post immunization starting from day 8 post immunization by ELISA; format: functional, organism-based; details: time 21.0 day
Rattus norvegicus [13] = experiment: Immunomodulatory activity in Freund's complete adjuvant induced Lewis rat model of arthritis assessed as reduction in IL-17 level in serum at 20 mg/kg, po administered every 24 to 48 hrs for 28 days post immunization starting from day 8 post immunization by ELISA; format: functional, organism-based; details: time 21.0 day
Rattus norvegicus [14] = experiment: Immunomodulatory activity in Freund's complete adjuvant induced Lewis rat model of arthritis assessed as increase in IL-10 level in serum at 20 mg/kg, po administered every 24 to 48 hrs for 28 days post immunization starting from day 8 post immunization by ELISA; format: functional, organism-based; details: time 21.0 day
Rattus norvegicus [15] = experiment: Immunomodulatory activity in Freund's complete adjuvant induced Lewis rat model of arthritis assessed as decrease in anti-IL-17 antibody expression in knee joint slices at 20 mg/kg, po administered every 24 to 48 hrs for 28 days post immunization starting from day 8 post immunization by immunohistochemistry analysis; format: functional, organism-based; details: time 21.0 day
[16] = Toxicity in male Wistar rat assessed as gastrointestinal damage by measuring level-3 ulcers with >3 mm area at 100 mg/kg administered by gavage and measured after 6 hrs; format: organism-based; details: in vivo, po
Rattus norvegicus [17] = experiment: Antiarthritic activity in Freund's complete adjuvant induced Lewis rat model of arthritis assessed as reduction in joint tissue damage by measuring reduction in cartilage degeneration at 20 mg/kg, po administered every 24 hrs for 28 days post immunization starting from day 8 post immunization by H and E staining based analysis; format: functional, organism-based; details: time 21.0 day
Rattus norvegicus [18] = experiment: Antiarthritic activity in Freund's complete adjuvant induced Lewis rat model of arthritis assessed as reduction in RORgammat protein expression at 20 mg/kg, po administered every 24 to 48 hrs for 28 days post immunization starting from day 8 post immunization by Western blot analysis; format: functional, organism-based; details: time 21.0 day
[19] = Toxicity in male Wistar rat assessed as gastrointestinal damage by measuring number of ulcers at 100 mg/kg administered by gavage and measured after 6 hrs (reference value: 0); format: organism-based; details: in vivo, po
[20] = Toxicity in male Wistar rat assessed as gastrointestinal damage by measuring level-1 ulcers with <1 mm area at 50 mg/kg administered by gavage and measured after 6 hrs; format: organism-based; details: in vivo, po
[21] = Toxicity in male Wistar rat assessed as gastrointestinal damage by measuring level-2 ulcers with 1 to 3 mm area at 50 mg/kg administered by gavage and measured after 6 hrs; format: organism-based; details: in vivo, po
[22] = Toxicity in male Wistar rat assessed as gastrointestinal damage by measuring level-2 ulcers with 1 to 3 mm area at 100 mg/kg administered by gavage and measured after 6 hrs; format: organism-based; details: in vivo, po
[23] = Hepatotoxicity in male Wistar rat assessed as effect on glutamic pyruvic transaminase level at 20 mg/kg, po administered for 3 days; format: toxicity, organism-based; details: in vivo, 72 h, time 3 day
[24] = Nephrotoxicity in male Wistar rat assessed as effect on blood urea nitrogen level at 20 mg/kg, po administered for 3 days; format: toxicity, organism-based; details: in vivo, 72 h, time 3 day

## CCCCC/C=C\C/C=C\C/C=C\C/C=C\CC/C=C(/OC(=O)C(C)c1ccc(C(=O)c2ccccc2)cc1)C(F)(F)F (stereo not given)
RAW264.7 [1]
  Activity: Non-Toxic
RAW264.7 [2]
  pIC50: 5.41
RAW264.7 [3]
  Activity: Active
RAW264.7 [4]
  Activity: Active
[5]
  Activity: Active
RAW264.7 [6]
  Activity: Dose-Dependent Effect
[7]
  Activity: Non-Toxic
Rattus norvegicus [8]
  Activity: Active
Mus musculus
  Activity: Active
Rattus norvegicus [9]
  Activity: Active
Rattus norvegicus [10]
  Activity: Active
Rattus norvegicus [11]
  Activity: Active
Rattus norvegicus [12]
  Activity: Active
Rattus norvegicus [13]
  Activity: Active
Rattus norvegicus [14]
  Activity: Active
Rattus norvegicus [15]
  Activity: Active
[16]
  Activity: 0%
Rattus norvegicus [17]
  Activity: Active
Rattus norvegicus [18]
  Activity: Active
[19]
  Activity: 7
[20]
  Activity: 0%
[21]
  Activity: 0%
[22]
  Activity: 14%
[23]
  Activity: Non-Toxic
[24]
  Activity: Non-Toxic
